Results published in PubChem BioAssay (NCI).
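Here, GI50 denotes the concentration required for 50% inhibition of growth. TGI marks complete inhibition of growth.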

Legend:
Experiment in all cases: NCI tumour cell line growth inhibition, 384-well format
BT-549 breast = system: BT-549 breast
HCT-116 colon = system: HCT-116 colon
OVCAR-3 ovarian = system: OVCAR-3 ovarian
UACC-62 melanoma = system: UACC-62 melanoma
HT29 colon = system: HT29 colon
UACC-257 melanoma = system: UACC-257 melanoma
MALME-3M melanoma = system: MALME-3M melanoma
HCT-15 colon = system: HCT-15 colon
MDA-MB-435 melanoma = system: MDA-MB-435 melanoma
COLO 205 colon = system: COLO 205 colon
PC-3 prostate = system: PC-3 prostate
M14 melanoma = system: M14 melanoma
CAKI-1 renal = system: CAKI-1 renal
RPMI-8226 leukemia = system: RPMI-8226 leukemia
MDA-MB-468 breast = system: MDA-MB-468 breast
SF-268 CNS = system: SF-268 CNS
NCI-H226 lung = system: NCI-H226 lung
HOP-62 NSCLC = system: HOP-62 NSCLC
SK-MEL-5 melanoma = system: SK-MEL-5 melanoma
NCI/ADR-RES ovarian = system: NCI/ADR-RES ovarian
OVCAR-8 ovarian = system: OVCAR-8 ovarian
OVCAR-5 ovarian = system: OVCAR-5 ovarian
NCI-H460 NSCLC = system: NCI-H460 NSCLC
ACHN renal = system: ACHN renal
SF-295 CNS = system: SF-295 CNS
SK-MEL-28 melanoma = system: SK-MEL-28 melanoma
MCF7 breast = system: MCF7 breast
DU-145 prostate = system: DU-145 prostate
NCI-H522 lung = system: NCI-H522 lung
SF-539 CNS = system: SF-539 CNS
KM12 colon = system: KM12 colon
NCI-H322M lung = system: NCI-H322M lung
786-0 renal = system: 786-0 renal
TK-10 renal = system: TK-10 renal
MOLT-4 leukemia = system: MOLT-4 leukemia
IGROV1 ovarian = system: IGROV1 ovarian
CCRF-CEM leukemia = system: CCRF-CEM leukemia
SR leukemia = system: SR leukemia
LOX IMVI melanoma = system: LOX IMVI melanoma
SW-620 colon = system: SW-620 colon
HOP-92 NSCLC = system: HOP-92 NSCLC
A549 NSCLC = system: A549 NSCLC
SK-OV-3 ovarian = system: SK-OV-3 ovarian
SNB-19 CNS = system: SNB-19 CNS
SK-MEL-2 melanoma = system: SK-MEL-2 melanoma
UO-31 renal = system: UO-31 renal
HCC-2998 colon = system: HCC-2998 colon
OVCAR-4 ovarian = system: OVCAR-4 ovarian
NCI-H23 lung = system: NCI-H23 lung
T-47D breast = system: T-47D breast
U251 glioblastoma = system: U251 glioblastoma
SN12C renal = system: SN12C renal
HL-60(TB) leukemia = system: HL-60(TB) leukemia
K-562 leukemia = system: K-562 leukemia
RXF 393 renal = system: RXF 393 renal
A498 renal = system: A498 renal
MDA-MB-231 breast = system: MDA-MB-231 breast

CNC(=O)n1ccc2cc(Oc3ccnc(NC(=O)c4ccc(C5CCN(CCO)CC5)cc4)c3)c(OCCOC)cc21
GI50 (BT-549 breast): 1370 nM | TGI (BT-549 breast): 3060 nM | GI50 (HCT-116 colon): 1320 nM | TGI (HCT-116 colon): 2650 nM | GI50 (OVCAR-3 ovarian): 2030 nM | TGI (OVCAR-3 ovarian): 3650 nM | GI50 (UACC-62 melanoma): 1750 nM | TGI (UACC-62 melanoma): 3160 nM | GI50 (HT29 colon): 171 nM | TGI (HT29 colon): 699 nM | GI50 (UACC-257 melanoma): 1420 nM | TGI (UACC-257 melanoma): 2730 nM | GI50 (MALME-3M melanoma): 1830 nM | TGI (MALME-3M melanoma): 3240 nM | GI50 (HCT-15 colon): 1670 nM | TGI (HCT-15 colon): 3180 nM | GI50 (MDA-MB-435 melanoma): 2250 nM | TGI (MDA-MB-435 melanoma): 4050 nM | GI50 (COLO 205 colon): 2270 nM | TGI (COLO 205 colon): 5230 nM | GI50 (PC-3 prostate): 2310 nM | TGI (PC-3 prostate): 4650 nM | GI50 (M14 melanoma): 1910 nM | TGI (M14 melanoma): 3330 nM | GI50 (CAKI-1 renal): 2770 nM | TGI (CAKI-1 renal): 5470 nM | GI50 (RPMI-8226 leukemia): 1520 nM | TGI (RPMI-8226 leukemia): 2860 nM | GI50 (MDA-MB-468 breast): 1860 nM | TGI (MDA-MB-468 breast): 3280 nM | GI50 (SF-268 CNS): 1770 nM | TGI (SF-268 CNS): 3650 nM | GI50 (NCI-H226 lung): 66.3 nM | TGI (NCI-H226 lung): 2180 nM | GI50 (HOP-62 NSCLC): 2120 nM | TGI (HOP-62 NSCLC): 4610 nM | GI50 (SK-MEL-5 melanoma): 1480 nM | TGI (SK-MEL-5 melanoma): 2810 nM | GI50 (NCI/ADR-RES ovarian): 4830 nM | TGI (NCI/ADR-RES ovarian): 16600 nM | GI50 (OVCAR-8 ovarian): 1820 nM | TGI (OVCAR-8 ovarian): 3300 nM | GI50 (OVCAR-5 ovarian): 1970 nM | TGI (OVCAR-5 ovarian): 7920 nM | GI50 (NCI-H460 NSCLC): 1650 nM | TGI (NCI-H460 NSCLC): 3100 nM | GI50 (ACHN renal): 1730 nM | TGI (ACHN renal): 3310 nM | GI50 (SF-295 CNS): 1820 nM | TGI (SF-295 CNS): 3760 nM | GI50 (SK-MEL-28 melanoma): 1840 nM | TGI (SK-MEL-28 melanoma): 3250 nM | GI50 (MCF7 breast): 1350 nM | TGI (MCF7 breast): 3300 nM | GI50 (DU-145 prostate): 3600 nM | TGI (DU-145 prostate): 12400 nM | GI50 (NCI-H522 lung): 2130 nM | TGI (NCI-H522 lung): 3850 nM | GI50 (SF-539 CNS): 1020 nM | TGI (SF-539 CNS): 2190 nM | GI50 (KM12 colon): 1840 nM | TGI (KM12 colon): 3650 nM | GI50 (NCI-H322M lung): 1830 nM | TGI (NCI-H322M lung): 4690 nM | GI50 ([…]-0 renal): 1120 nM | TGI (786-0 renal): 2430 nM | GI50 (TK-10 renal): 1960 nM | TGI (TK-10 renal): 4440 nM | GI50 (MOLT-4 leukemia): 1400 nM | TGI (MOLT-4 leukemia): 2700 nM | GI50 (IGROV1 ovarian): 3480 nM | TGI (IGROV1 ovarian): 14000 nM | GI50 (CCRF-CEM leukemia): 1740 nM | TGI (CCRF-CEM leukemia): 3130 nM | GI50 (SR leukemia): 830 nM | TGI (SR leukemia): 2050 nM | GI50 (LOX IMVI melanoma): 1720 nM | TGI (LOX IMVI melanoma): 3110 nM | GI50 (SW-620 colon): 3010 nM | TGI (SW-620 colon): 4960 nM | GI50 (HOP-92 NSCLC): 1650 nM | TGI (HOP-92 NSCLC): 3550 nM | GI50 (A549 NSCLC): 3210 nM | TGI (A549 NSCLC): 11100 nM | GI50 (SK-OV-3 ovarian): 1830 nM | TGI (SK-OV-3 ovarian): 3620 nM | GI50 (SNB-19 CNS): 3610 nM | TGI (SNB-19 CNS): 11800 nM | GI50 (SK-MEL-2 melanoma): 1590 nM | TGI (SK-MEL-2 melanoma): 2990 nM | GI50 (UO-31 renal): 498 nM | TGI (UO-31 renal): 1740 nM | GI50 (HCC-2998 colon): 2240 nM | TGI (HCC-2998 colon): 4070 nM | GI50 (OVCAR-4 ovarian): 1380 nM | TGI (OVCAR-4 ovarian): 2830 nM | GI50 (NCI-H23 lung): 3860 nM | TGI (NCI-H23 lung): 13400 nM | GI50 (T-47D breast): 1080 nM | TGI (T-47D breast): 2300 nM | GI50 (U251 glioblastoma): 1560 nM | TGI (U251 glioblastoma): 3110 nM | GI50 (SN12C renal): 3500 nM | TGI (SN12C renal): 9770 nM | GI50 (HL-60(TB) leukemia): 2480 nM | TGI (HL-60(TB) leukemia): 3950 nM | GI50 (K-562 leukemia): 186 nM | TGI (K-562 leukemia): 451 nM | GI50 (RXF 393 renal): 304 nM | TGI (RXF 393 renal): 913 nM | GI50 (A498 renal): 1260 nM | TGI (A498 renal): 2960 nM | GI50 (MDA-MB-231 breast): 1650 nM | TGI (MDA-MB-231 breast): 3170 nM
